Results as given in patent US9839638B2, “Compositions and methods for protecting cells during cancer chemotherapy and radiotherapy” (Wisconsin Alumni Research Foundation, priority 2000, dated 2017).

Tests used:
[1] = test system: chemoprotective/stress-related genes (GST-PI, GST-Mu2, GST-Ya, GST) in rat pup skin; test: Rat stress gene cDNA expression array on skin samples of treated rat pups; assay type: in vivo; settings: topical 15 mM for 5 days; compared to rat pups treated with cytoxan
Experimental: In brief, rat pups were treated with either CTX or B-NF and at different time intervals skin samples were collected and total RNA was extracted from them. The RNA was reverse transcribed to form the respective cDNAs in the presence of ^32P dATP using primers specific for stress-related genes. The radiolabeled cDNA synthesized was used to probe a rat stress gene cDNA expression array consisting of 207 stress-related genes (Clontech) according to the manufacturer's protocol. The hybridized membrane was exposed to a phosphorimager screen and the image obtained was aligned with an orientation grid to identify the genes that are expressed. Images from control, CTX, treated and B-NF-treated animals were compared to determine the changes, if any, in the expression pattern of chemoprotective genes under these experimental conditions.

[2] = test system: CTX induced alopecia in 7 day old rat pups; test: Prevention of cytoxan (CTX)-induced alopecia by topical chemoprotective inducers in rat pups; assay type: in vivo, Sprague Dawley rats; settings: for alopecia when delivered in minoxidil vehicle (propylene glycol:ethanol:water): minoxidil carrier, compared with CTX-treated pups without inducer; for protective effect against CTX-induced hair loss (hair density): topical in nonionic liposomes day -2 to day 6, CTX i.p. day 0, scored day 7, 100% = untreated control pups
[3] = test system: 7 day old rat pups (hair loss); settings: 40 μg/gm CTX i.p., 7 day old pups, examined seven days after
Experimental: Lactating Sprague Dawley rats with 12 pups per mother were purchased from Harlan Sprague Dawley. To produce CTX induced alopecia, several concentrations (35, 40 45 μg/gm body weight) of CTX in water were injected i.p. in to 7 day old pups. Seven days after CTX treatment the pups were examined to determine the degree of hair loss. The pups were gently brushed on the back to remove the loose hair sticking onto the skin and photographed. The density of hair on the pups was then determined.

Row | Structure (SMILES) | protective effect against CTX-induced hair loss (hair density) [2] | other results
1 | O=c1cc(-c2ccccc2)oc2ccc3ccccc3c12 [B-NF, β-naphthoflavone] | 80% | expression level of GST-PI, GST-Mu2, GST-Ya and GST (rat homolog of human) in skin [1]: significant increase; protective effect when applied only on the day before cytoxan ([2]; applied only on the day before cytoxan): substantial protective effect; alopecia when delivered in minoxidil vehicle (propylene glycol:ethanol:water) [2]: as severe as the untreated CTX-treated rat pups; alopecia when delivered in minoxidil vehicle (propylene glycol:ethanol:water) ([2]; listed as BNF): hair loss equivalent to that observed in cytoxan-treated animals not pre-treated
2 | C[S+]([O-])CCCCN=C=S (stereo not shown) [sulphoraphane] | 5% | 
3 | Cc1c(-c2cnccn2)ssc1=S [Oltipraz] | 50% | 
4 | COc1ccc(O)c(C(C)(C)C)c1 [BHA] | 60% | 
5 | CC(C)(C)c1cc(O)ccc1O [tBHQ, tert-butylhydroquinone] | 10% | 
6 | O=P1(N(CCCl)CCCl)NCCCO1 (stereo not shown) [CTX] |  | hair loss induced [3]: 100%
